Measured values published in patent publication US11560400B2, “Salts of diphosphate phosphoramidate of nucleosides as anticancer compounds” (NuCana plc, priority 2017, dated 2023).
pEC50: −log10 of the molar value. Structures can show the parent of a compound that is named as a salt. Where two headings read alike, the source gives them in different places.

Experiments:
[1] = tested on: MOLT-4; assay: CellTiterGlo cell viability assay, MOLT-4; assay type: cell-based; conditions: MOLT-4, 72 h; for inhibition at 198 µM: read-out: Top Inh; for pEC50: read-out: Ab EC50
Method: (§1) A subset of compounds of the invention were assayed for their cytotoxic activity in an array of different solid tumours and haematological malignancies using the following assay.
(§2) In vitro viability assay were performed to assess the effects of compounds on cell viability in selected cell lines over 72 h using the CellTiterGlo (CTG, Promega-G7573) assay. The tests were performed in duplicates with treatment of compounds at 9 points, 3.16 folds titration in 96 well plates over ˜72 h. The compound starting concentrations were 198 μM. Cell viability assay using CellTiterGlo in 96-well plate were performed. Compound treatment 72 h, standard growth conditions, duplicates. Compounds were dissolved to 40 mM with thawed […]. Compounds were serially diluted at 3.16 fold in thawed DMSO, and warmed to 37° C. before being dissolved in media (2 μL+200 μL). After compounds were dissolved in media, media containing compounds were warmed to 37° C. in incubator and then compounds in media were added to cell plates (50 μL+50 μL) in duplicates. The compounds' final concentrations were from 198 μM to 19.8 nM. All compound solubilities were checked and recorded again, then the plates were transferred to CO2 tissue culture incubator immediately and incubated for 3 days. DMSO final concentration is 0.5%. The parent nucleoside in each case was tested as a comparator, as was an exemplary ProTide. The drugs of the ProTide class that were tested were as follows:
(§3) The following cell lines were tested and are referred to in the Table 1 below:
(§4) In Tables 2, 3 and 4, ‘Ab EC50’ refers to the absolute EC50 and ‘Top inhibit’ refers to the percentage inhibition achieved at the highest concentration tested.

[2] = tested on: HL-60; assay: CellTiterGlo cell viability assay, HL-60; assay type: cell-based; conditions: HL-60, 72 h; for pEC50: read-out: Ab EC50; for inhibition at 198 µM: read-out: Top Inh
Method: as §1, §2, §3, §4

[3] = tested on: Mia-Pa-Ca-2; assay: CellTiterGlo cell viability assay, Mia-Pa-Ca-2; assay type: cell-based; conditions: Homo sapiens, MIA PaCa-2, Mia-Pa-Ca-2, 72 h
Method: as §1, §2, §3, §4

[4] = tested on: K562; assay: CellTiterGlo cell viability assay, K562; assay type: cell-based; conditions: for inhibition at 198 µM: read-out: Top Inh; for pEC50: read-out: Ab EC50
Method: as §1, §2, §3, §4

[5] = tested on: RL; assay: CellTiterGlo cell viability assay, RL; assay type: cell-based; conditions: 72 h; for pEC50: read-out: Ab EC50; for inhibition at 198 µM: read-out: Top Inh
Method: as §1, §2, §3, §4

[6] = tested on: HT29; assay: CellTiterGlo cell viability assay, HT29; assay type: cell-based; conditions: HT29, 72 h; for pEC50: read-out: Ab EC50; for inhibition at 198 µM: read-out: Top Inhibit
Method: as §1, §2, §3, §4

[7] = tested on: KG-1; assay: CellTiterGlo cell viability assay, KG-1; assay type: cell-based; conditions: KG-1, 72 h; for pEC50: Table 4 classes, read-out: Ab EC50; for inhibition at 198 µM: read-out: Top Inhibit
Method: as §1, §2, §3, §4

[8] = tested on: CCRF-CEM; assay: CellTiterGlo cell viability assay, CCRF-CEM; assay type: cell-based; conditions: 72 h; for pEC50: Table 4 classes, read-out: Ab EC50; for inhibition at 198 µM: read-out: Top Inh
Method: as §1, §2, §3, §4

[9] = tested on: RPMI-8226; assay: CellTiterGlo cell viability assay, RPMI-8226; assay type: cell-based, Human; conditions: RPMI-8226, 72 h; for pEC50: Table 4 classes, read-out: Ab EC50; for inhibition at 198 µM: read-out: Top Inh
Method: as §1, §2, §3, §4

[10] = tested on: MCF-7; assay: CellTiterGlo cell viability assay, MCF-7; assay type: cell-based; conditions: MCF-7, 72 h, percentage inhibition at the highest concentration tested; for inhibition at 198 µM: Homo sapiens, MCF7, 72 h, read-out: Top Inhibit
Method: as §1, §2, §3, §4

[11] = tested on: HepG2; assay: CellTiterGlo cell viability assay, HepG2; assay type: cell-based; conditions: HepG2, 72 h; for inhibition at 198 µM / pEC50: Homo sapiens; for inhibition at 198 µM: read-out: Top Inhibit; for pEC50: Table 4 classes, read-out: Ab EC50
Method: as §1, §2, §3, §4

[12] = tested on: OVCAR 3; assay: CellTiterGlo cell viability assay, OVCAR 3; assay type: cell-based; conditions: for inhibition at 198 µM: OVCAR-3, 72 h, read-out: Top Inhibit; for pEC50: Table 4 classes, read-out: Ab EC50
Method: as §1, §2, §3, §4

[13] = Homo sapiens, percentage inhibition at the highest concentration tested
[14] = Homo sapiens, absolute EC50, numeric values
[15] = Homo sapiens, K562, 72 h, percentage inhibition at the highest concentration tested
[16] = Homo sapiens, HT-29, 72 h, percentage inhibition at the highest concentration tested
[17] = percentage inhibition at the highest concentration tested
[18] = Homo sapiens, K562, K 562, 72 h, Table 4 classes
[19] = Homo sapiens, HT-29, 72 h, Table 4 classes

| SMILES | inhibition at 198 µM [1, 13] [%] | inhibition at 198 µM [2, 13] [%] | inhibition at 198 µM [4, 15] [%] | inhibition at 198 µM [5, 13] [%] | inhibition at 198 µM [6, 16] [%] | pEC50 ([1]; Homo sapiens, Table 4 classes) | pEC50 ([7]; Homo sapiens) | inhibition at 198 µM [7, 13] [%] | pEC50 ([2]; Homo sapiens, Table 4 classes) | pEC50 ([8]; Homo sapiens) | inhibition at 198 µM [8, 13] [%] | pEC50 ([9]; Homo sapiens) | inhibition at 198 µM [9, 13] [%] | inhibition at 198 µM [10] [%] | inhibition at 198 µM [11, 17] [%] | pEC50 [4, 18] | inhibition at 198 µM [12, 13] [%] | pEC50 ([12]; Homo sapiens, OVCAR 3, 72 h) | pEC50 [6, 19] | pEC50 [11] | other results |
| --- | --- | --- | --- | --- | --- | --- | --- | --- | --- | --- | --- | --- | --- | --- | --- | --- | --- | --- | --- | --- | --- |
| C[C@H](NP(=O)(Oc1ccccc1)OP(=O)(O)OC[C@@H]1C[C@H](O)[C@H](n2cnc3c(N)ncnc32)O1)C(=O)OCc1ccccc1 (stereo partly drawn) [Example 6, 3′-Deoxyadenosine-5′-O-[phenyl(benzoxy-L-alaninyl)] Diphosphate Triethylammonium Salt] | 95 | 80 | 81 | 72 | 82 |  |  |  |  |  |  |  |  |  |  |  |  |  |  |  | pEC50 [1, 14]: 4.85; pEC50 [2, 14]: 4.20; pEC50 ([3]; absolute EC50, read-out: Ab EC50): 4.39; inhibition at 198 µM ([3]; percentage inhibition at the highest concentration tested, read-out: Top Inhibit): 95.7%; pEC50 ([4]; Homo sapiens, K562, 72 h, absolute EC50, numeric values): 4.28; pEC50 [5, 14]: 4.05; pEC50 ([6]; Homo sapiens, HT-29, 72 h, absolute EC50, numeric values): 4.61 |
| Nc1nc(Cl)nc2c1ncn2[C@@H]1O[C@H](COP(=O)(O)OP(=O)(N[C@@H](Cc2ccccc2)C(=O)OCc2ccccc2)Oc2ccccc2)C(O)[C@H]1F (stereo partly drawn) [Example 22, 2-Chloro-9-(2′-Deoxy-2′-fluoro-β-D-arabinofuranosyl)adenine-5′-O-[l-phenyl(benzoxy-L-phenylalaninyl)] Diphosphate Triethylammonium Salt] | 89 | 95 | 62 | 42 | 69 | > 6.70 | > 6.70 | 92 | > 6.70 | > 6.70 | 99 | 5.30 to 6.00 | 86 | 50 | 47 | < 5.00 | 73 | < 5.00 | 6.00 to 6.70 |  |  |
| Nc1nc(Cl)nc2c1ncn2[C@@H]1O[C@H](COP(=O)(O)OP(=O)(Oc2ccccc2)N2CCCC2C(=O)OCc2ccccc2)[C@H](O)C1F (stereo partly drawn) [Example 23, 2-Chloro-9-(2′-Deoxy-2′-fluoro-β-D-arabinofuranosyl)adenine-5′-O-[1-phenyl(benzoxy-L-prolinyl)] Diphosphate Triethylammonium Salt] | 89 | 96 | 35 | 39 | 68 | > 6.70 | > 6.70 | 93 | > 6.70 | > 6.70 | 99 | < 5.00 | 85 | 48 | 51 | < 5.00 | 63 | < 5.00 | 6.00 to 6.70 | 5.30 to 6.00 |  |
| COC(=O)[C@H](CCSC)NP(=O)(Oc1ccccc1)OP(=O)(O)OC[C@H]1O[C@@H](n2cnc3c(N)nc(Cl)nc32)C(F)[C@H]1O (stereo partly drawn) [Example 24, 2-Chloro-9-(2′-Deoxy-2′-fluoro-β-D-arabinofuranosyl)adenine-5′-O-[l-phenyl(methoxy-L-metioninyl)] Diphosphate Triethylammonium Salt] | 88 | 95 | 49 | 39 | 70 | > 6.70 | > 6.70 | 91 | > 6.70 | > 6.70 | 99 | < 5.00 | 86 | 49 | 54 | < 5.00 | 67 | < 5.00 | 6.00 to 6.70 | 5.30 to 6.00 |  |
| CCOC(=O)[C@@H](NP(=O)(Oc1ccccc1)OP(=O)(O)OC[C@H]1O[C@@H](n2cnc3c(N)nc(Cl)nc32)C(F)[C@H]1O)C(C)CC (stereo partly drawn) [Example 25, 2-Chloro-9-(2′-Deoxy-2′-fluoro-β-D-arabinofuranosyl)adenine-5′-O-[l-phenyl(ethoxy-L-isoleucinyl)] Diphosphate Triethylammonium Salt] | 86 | 95 | 33 | 44 | 67 | > 6.70 | > 6.70 | 91 | > 6.70 | > 6.70 | 99 | 5.30 to 6.00 | 83 | 43 | 49 | < 5.00 | 24 | < 5.00 | 6.00 to 6.70 |  |  |
| CCN(CC)CC.C[C@H](NP(=O)(Oc1cccc2ccccc12)OP(O)(=S)OC[C@H]1O[C@@H](n2cnc3c(N)nc(Cl)nc32)[C@@H](F)[C@@H]1O)C(=O)OCc1ccccc1 (stereo partly drawn) [Example 26, 2-Chloro-9-(2′-Deoxy-2′-fluoro-β-D-arabinofuranosyl)adenine-5′-O-[l-naphthyl(benzoxy-L-alaninyl)] phosphorothiol-phosphate Triethylammonium Salt] |  |  |  |  |  |  |  |  |  |  |  |  |  |  |  |  |  |  |  |  | pEC50 ([1]; Table 4 classes): > 6.70; Top Inh [1, 17]: 84%; pEC50 [7]: > 6.70; Top Inhibit [7, 17]: 91%; pEC50 ([2]; Table 4 classes): > 6.70; Top Inh [2, 17]: 95%; pEC50 [8]: > 6.70; Top Inh [8, 17]: 99%; pEC50 [9]: 5.30 to 6.00; Top Inh [9, 17]: 93%; Top Inhibit [10]: 44%; Top Inhibit [11, 17]: 49%; pEC50 ([4]; K 562, 72 h, Table 4 classes): < 5.00; Top Inh ([4]; K562, 72 h, percentage inhibition at the highest concentration tested): 69%; pEC50 ([5]; Table 4 classes): < 5.00; Top Inh [5, 17]: 56%; pEC50 ([12]; OVCAR 3, 72 h): < 5.00; Top Inhibit ([12]; OVCAR 3, 72 h, percentage inhibition at the highest concentration tested): 62%; pEC50 ([6]; Table 4 classes): 6.00 to 6.70; Top Inhibit [6, 17]: 64% |
